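Where inhibition never reached the appropriate level, the endpoint shown equals the highest concentration tested. Otherwise, values were interpolated linearly from a five-concentration, 48-hour dose response in 96-well plates. GI50 marks 50% less growth.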 Active and inactive are the calls of the source. No stated cut-off is given here; in the data, active = GI50 up to about 1.1 µM and inactive = higher.
Legend:
Experiment in all cases: NCI anticancer screen, dose series, 48 h
NCI-H522 = test system: NCI-H522
OVCAR-5 = test system: OVCAR-5
TK-10 = test system: TK-10
SN12C = test system: SN12C
HOP-92 = test system: HOP-92
SF-268 = test system: SF-268
MCF7 = test system: MCF7
SK-OV-3 = test system: SK-OV-3
SK-MEL-2 = test system: SK-MEL-2
CAKI-1 = test system: CAKI-1
OVCAR-8 = test system: OVCAR-8
UO-31 = test system: UO-31
CCRF-CEM = test system: CCRF-CEM
HL-60 = test system: HL-60
786-0 = test system: 786-0
NCI-H460 = test system: NCI-H460
BT-549 = test system: BT-549
UACC-257 = test system: UACC-257
HT-29 = test system: HT-29
NCI-H23 = test system: NCI-H23
SK-MEL-28 = test system: SK-MEL-28
SF-295 = test system: SF-295
MDA-N = test system: MDA-N
NCI/ADR-RES = test system: NCI/ADR-RES
SNB-19 = test system: SNB-19
SF-539 = test system: SF-539
MDA-MB-231 = test system: MDA-MB-231
DU-145 = test system: DU-145
U-251 = test system: U-251
KM12 = test system: KM12
K562 = test system: K562
MOLT-4 = test system: MOLT-4
PC-3 = test system: PC-3
IGROV-1 = test system: IGROV-1
RXF 393 = test system: RXF 393
A549 = test system: A549
MDA-MB-435 = test system: MDA-MB-435
SR = test system: SR
HCT-116 = test system: HCT-116
SK-MEL-5 = test system: SK-MEL-5
HOP-62 = test system: HOP-62
LOX IMVI = test system: LOX IMVI
ACHN = test system: ACHN
A498 = test system: A498
HCT-15 = test system: HCT-15
RPMI-8226 = test system: RPMI-8226
Hs-578T = test system: Hs-578T
EKVX = test system: EKVX
SNB-75 = test system: SNB-75
M14 = test system: M14
UACC-62 = test system: UACC-62
Malme-3M = test system: Malme-3M
SW-620 = test system: SW-620
HCC 2998 = test system: HCC 2998
COLO 205 = test system: COLO 205
OVCAR-4 = test system: OVCAR-4
T47D = test system: T47D
OVCAR-3 = test system: OVCAR-3
NCI-H226 = test system: NCI-H226

## O=c1[nH]c(=S)[nH]cc1CN1CCOCC1
NCI-H522
  GI50: > 100 µM (inactive)
OVCAR-5
  GI50: > 100 µM (inactive)
TK-10
  GI50: > 100 µM (inactive)
SN12C
  GI50: > 100 µM (inactive)
HOP-92
  GI50: > 100 µM (inactive)
SF-268
  GI50: > 100 µM (inactive)
MCF7
  GI50: > 100 µM (inactive)
SK-OV-3
  GI50: > 100 µM (inactive)
SK-MEL-2
  GI50: > 100 µM (inactive)
CAKI-1
  GI50: > 100 µM (inactive)
OVCAR-8
  GI50: > 100 µM (inactive)
UO-31
  GI50: > 100 µM (inactive)
CCRF-CEM
  GI50: > 100 µM (inactive)
HL-60
  GI50: > 100 µM (inactive)
786-0
  GI50: > 100 µM (inactive)
NCI-H460
  GI50: > 100 µM (inactive)
BT-549
  GI50: > 100 µM (inactive)
UACC-257
  GI50: > 100 µM (inactive)
HT-29
  GI50: > 100 µM (inactive)
NCI-H23
  GI50: > 100 µM (inactive)
SK-MEL-28
  GI50: > 100 µM (inactive)
SF-295
  GI50: > 100 µM (inactive)
MDA-N
  GI50: > 100 µM (inactive)
NCI/ADR-RES
  GI50: > 100 µM (inactive)
SNB-19
  GI50: > 100 µM (inactive)
SF-539
  GI50: > 100 µM (inactive)
MDA-MB-231
  GI50: > 100 µM (inactive)
DU-145
  GI50: > 100 µM (inactive)
U-251
  GI50: > 100 µM (inactive)
KM12
  GI50: > 100 µM (inactive)
K562
  GI50: > 100 µM (inactive)
MOLT-4
  GI50: > 100 µM (inactive)
PC-3
  GI50: > 100 µM (inactive)
IGROV-1
  GI50: > 100 µM (inactive)
RXF 393
  GI50: > 100 µM (inactive)
A549
  GI50: > 100 µM (inactive)
MDA-MB-435
  GI50: > 100 µM (inactive)
SR
  GI50: > 100 µM (inactive)
HCT-116
  GI50: > 100 µM (inactive)
SK-MEL-5
  GI50: > 100 µM (inactive)
HOP-62
  GI50: > 100 µM (inactive)
LOX IMVI
  GI50: > 100 µM (inactive)
ACHN
  GI50: > 100 µM (inactive)
A498
  GI50: > 100 µM (inactive)
HCT-15
  GI50: > 100 µM
RPMI-8226
  GI50: > 100 µM (inactive)
Hs-578T
  GI50: > 100 µM (inactive)
EKVX
  GI50: > 100 µM (inactive)
SNB-75
  GI50: > 100 µM (inactive)
M14
  GI50: > 100 µM (inactive)
UACC-62
  GI50: > 100 µM (inactive)
Malme-3M
  GI50: > 100 µM (inactive)
SW-620
  GI50: > 100 µM (inactive)
HCC 2998
  GI50: > 100 µM (inactive)
COLO 205
  GI50: > 100 µM (inactive)
OVCAR-4
  GI50: > 100 µM (inactive)
T47D
  GI50: > 100 µM (inactive)
OVCAR-3
  GI50: > 100 µM (inactive)

## O=C1C[S+]([O-])C23c4cc5ccccc5n4CCC2CCCN13 (configuration not stated)
NCI-H522
  GI50: > 100 µM (inactive)
OVCAR-5
  GI50: > 100 µM (inactive)
TK-10
  GI50: > 100 µM (inactive)
SN12C
  GI50: > 100 µM (inactive)
HOP-92
  GI50: > 100 µM (inactive)
SF-268
  GI50: > 100 µM (inactive)
MCF7
  GI50: > 100 µM (inactive)
SK-OV-3
  GI50: > 100 µM (inactive)
SK-MEL-2
  GI50: > 100 µM (inactive)
CAKI-1
  GI50: > 100 µM (inactive)
OVCAR-8
  GI50: > 100 µM (inactive)
HL-60
  GI50: > 100 µM (inactive)
NCI-H226
  GI50: > 100 µM (inactive)
786-0
  GI50: > 100 µM (inactive)
BT-549
  GI50: > 100 µM (inactive)
UACC-257
  GI50: > 100 µM (inactive)
HT-29
  GI50: > 100 µM (inactive)
NCI-H23
  GI50: > 100 µM (inactive)
SK-MEL-28
  GI50: > 100 µM (inactive)
SF-295
  GI50: > 100 µM (inactive)
MDA-N
  GI50: > 100 µM (inactive)
NCI/ADR-RES
  GI50: > 100 µM (inactive)
SNB-19
  GI50: > 100 µM (inactive)
SF-539
  GI50: > 100 µM (inactive)
MDA-MB-231
  GI50: > 100 µM (inactive)
DU-145
  GI50: > 100 µM (inactive)
U-251
  GI50: > 100 µM (inactive)
KM12
  GI50: > 100 µM (inactive)
K562
  GI50: > 100 µM (inactive)
MOLT-4
  GI50: > 100 µM (inactive)
PC-3
  GI50: > 100 µM (inactive)
IGROV-1
  GI50: > 100 µM (inactive)
RXF 393
  GI50: > 100 µM (inactive)
A549
  GI50: > 100 µM (inactive)
MDA-MB-435
  GI50: > 100 µM (inactive)
SR
  GI50: > 100 µM (inactive)
HCT-116
  GI50: > 100 µM (inactive)
SK-MEL-5
  GI50: > 100 µM (inactive)
HOP-62
  GI50: > 100 µM (inactive)
LOX IMVI
  GI50: > 100 µM (inactive)
ACHN
  GI50: > 100 µM (inactive)
A498
  GI50: > 100 µM (inactive)
HCT-15
  GI50: > 100 µM
RPMI-8226
  GI50: > 100 µM (inactive)
Hs-578T
  GI50: > 100 µM (inactive)
EKVX
  GI50: > 100 µM (inactive)
M14
  GI50: > 100 µM (inactive)
UACC-62
  GI50: > 100 µM (inactive)
Malme-3M
  GI50: > 100 µM (inactive)
SW-620
  GI50: > 100 µM (inactive)
COLO 205
  GI50: > 100 µM (inactive)
OVCAR-4
  GI50: > 100 µM (inactive)
T47D
  GI50: > 100 µM (inactive)
OVCAR-3
  GI50: > 100 µM (inactive)
